The structures appear in SMILES notation.

In general, melting point refers to the temperature of the solid-liquid transition. Molecule `O=c1ccoc2cc(OCCCNCC3COc4ccc(O)cc4O3)ccc12` (stereo not drawn) gave a melting point of 186 to 189 °C.
As to `Nc1nc2c(=O)c3cc(Cl)ccc3oc2cc1-c1nnn[nH]1`, the melting point is > 300 °C.
As for `O=C(NCCCCCCNC(=O)N(O)Cc1ccccc1)N(O)Cc1ccccc1`, the figure is 181 to 182 °C.
In turn, `CCCC1=NN(c2ccc(S(=O)(=O)O)cc2)C(=O)C1=CNc1ccccc1CC` came in with a melting point of 205 °C.
For the molecule `CCNC(=O)c1cc(Oc2nn(C)c(C(F)(F)F)c2Cl)ccc1[N+](=O)[O-]`, the melting point came to 130 °C.
`CN(C)c1cnc(N)cn1` displayed a melting point of 71.5 to 74.2 °C.
As for `CCc1c2cccccc-2[nH]c1=O`, the figure is 166 to 171 °C; as for `CN1CCN(C2=Nc3ccncc3Oc3ccccc32)CC1`, 124 to 125 °C.
For `COc1ccc(S(=O)(=O)C(CC(=O)NO)Cc2ccccc2)cc1` (stereo not drawn), the melting point was in the range of 118 to 120 °C.
Take `CN1CCN(CCC/C=C/c2ccc3c(Nc4ccc(Sc5nccn5C)c(Cl)c4)c(C#N)cnc3c2)CC1`: the melting point is 219 to 227 °C.
The same measure for `Cc1cccc(NC(=O)c2ccc3nc(NC4CCN(C)CC4)n(Cc4nc(C)ccc4O)c3c2)c1`: 172 °C; for `O=C1Cc2cccc(Oc3ccccc3F)c2O1`: 82 to 84 °C.
The same measure for `Cc1ccc(Sc2cncc3sc(C(=O)NC=NN)cc23)cc1`: 202 to 205 °C; for `Cc1csc(=Nc2ccccc2C)s1`: 65.5 to 69 °C; for `CCn1ccc2nc(N3CCN(Cc4ccccc4)CC3)ncc2c1=O`: 116 to 118 °C.
As for `COc1ccc(OC(c2ccc(OC)cc2)C(Cl)(Cl)Cl)cc1` (stereo not drawn), the figure is 90 °C; as for `CCOC(=O)c1cnc2ccc(Cl)cc2c1O`, > 260 °C; as for `CCCCCN1C(=O)C2(COc3cc4c(cc32)OCO4)c2c(Cl)ccc(Cl)c21` (stereo not drawn), 106 to 108 °C.
`COc1ccc(CCN(C)CCCCc2ccc(NC(=O)c3cccc4c(=O)c5cccc(OC)c5[nH]c34)cc2)cc1OC`: the melting point stood at 170 °C.
On to `CCOc1nn(-c2ccc(C(F)(F)F)cn2)cc1CCCOc1cccc(CCC(=O)O)c1`, for which the melting point fell in the range of 88 to 89 °C.
The same measure for `CN(C(=O)C(F)(F)F)C(C(=O)O)c1ccccc1` (stereo not drawn): 124 to 126 °C; for `Cc1ccc(C(O)C(=O)c2ccc(Br)cc2)cc1` (stereo not drawn): 80 to 82 °C.
As for `O=C(NCc1ccccn1)Nc1cc(N2CC(COc3ccccc3)OC2=O)ccn1` (stereo not drawn), the figure is 155 to 156 °C.
In turn, `CCCNCc1ccc(-c2cc3ncnc(Nc4ccc5[nH]ccc5c4)c3s2)cc1` came in with a melting point of 190 to 205 °C.
The same measure for `O=Cc1c(N2CCNCC2)n(-c2ccccc2)c2ccccc12`: 175 °C; for `CCc1cc(NC(=O)c2nnn(Cc3ccc(OC)cc3)n2)c(O)c(C(C)=O)c1`: 159 to 160 °C; for `Cn1cc(C(=O)NCc2ccc(C#N)cc2)c(=O)c2cc(C#CCO)ccc21`: 230 to 232 °C.
Turning to `COc1ccc(C(C)N(C)CCCOc2ccc(S(=O)(=O)c3c(C(C)C)cn4ccccc34)cc2)cc1` (stereo not drawn), the melting point is 140 to 144 °C.
Regarding `CSc1c2c3c(cccc3n1C)C1C=C(C)CN(C)C1C2` (stereo not drawn), the melting point was in the range of 115 to 116 °C.
The same measure for `COc1ccc(-c2nc3n(c2-c2ccccc2)Cc2ccccc2C3)cc1`: 172 to 173 °C; for `CN(C)c1ncnc2c1c(-c1ccc([N+](=O)[O-])o1)nn2C`: 161 °C; for `CC(C(N)=O)c1ccc2c(c1)CC(=O)c1ccccc1S2` (stereo not drawn): 184 to 186 °C.
The same measure for `Cn1c(-c2ccc(C(=O)O)cc2)ccc1-c1ccc(C(F)(F)F)cc1`: 260 to 261 °C; for `CC(=O)c1ccc(NS(C)(=O)=O)c(Br)c1`: 124 to 126 °C.
The same measure for `CCCCCCC(=Cc1ccccc1)C(O)Cc1nc(C)c(C)nc1C` (stereo not drawn): 61 to 62 °C; for `O=C(O)CON(Cc1ccc(F)cc1)C(=O)C=C(O)C(=O)O`: 135 to 138 °C.
For `N#Cc1cnc2cc(C#CCO)ccc2c1Nc1ccc(Cl)cc1Cl`, the melting point was in the range of 251 to 253 °C.
`O=C(c1ccc(O)cc1)c1c(-c2ccccc2)ccc2ccccc12` returned a melting point of 204 to 205 °C.
`COc1ccc2nc(C)c(S(N)(=O)=O)n2n1` registered a melting point of 251 °C.
Molecule `O=C(c1cc2cc3oc(=O)[nH]c3cc2o1)N1CCC(OCc2ccccc2)CC1` gave a melting point of 217 to 219 °C.
In turn, `COc1cc(Nc2nccc(Nc3ccc4c(ccn4S(=O)(=O)c4ccccc4)c3)n2)cc(OC)c1OC` came in with a melting point of 127 °C.
In the case of `O=S(=O)(CCc1ccc(-c2ccccc2)cc1)N1CC(CN2CCCC2)Cc2ccccc21` (stereo not drawn), the melting point lay within 107 to 110 °C.
For the molecule `O=C(O)C(O)(CC1CCCCC1)c1ccccc1` (stereo not drawn), the melting point is 138 to 140 °C.
`COc1ccc2c(c1)C(C)(N)C(=O)N2c1ccc(F)cc1` (stereo not drawn): the melting point fell in the range of 163 to 164 °C.
The same measure for `Cc1cc(Oc2ccc(NC(=O)Nc3ccc(N(CCCl)CCCl)cc3)cc2)c2cc3c(cc2n1)OCO3`: 217 to 218 °C; for `COC(=O)c1ccc(NC(=O)c2cc(C(C)C)c(C(C)C)s2)cn1`: 207 to 208 °C.
As for `Oc1cc2c3ccc(O)c(O)c3n(Cc3c(Cl)cccc3Cl)c2cc1O`, the figure is 263 to 265 °C; as for `COc1nc(N)ccc1C(=O)CCC1CCN(CC2CCCCC2)CC1`, 73.2 °C.
As for `CS(=O)(=O)Nc1cc(Cl)c(Cl)cc1Cl`, the figure is 144 to 145 °C.
As for `COCC(Cl)C(=O)Nc1c(C(=O)CC(=O)Nc2nccs2)cccc1C(F)(F)F` (stereo not drawn), the melting point turned out to be 190 °C.
As for `O=C(Nc1ccccc1)Nc1ccnc(Br)c1`, the figure is 188 to 189 °C; as for `COc1cc(OC)nc(Sc2sccc2NS(=O)(=O)CC#N)c1`, 118 to 120 °C.
In turn, `COc1ccc2[nH]c(-c3nc(C)no3)cc2c1` gave a melting point of 141 to 142 °C.
The same measure for `COc1ccc(CC2Cc3cc(C)cnc3C(O)C2)cc1` (single isomer, unassigned; (+)): 132 to 134 °C; for `Cc1nc2cc3c(cc2s1)C1(CO3)C(=O)N(Cc2ncc(Cl)n2C)c2ccccc21` (stereo not drawn): 177 to 178 °C; for `CC1(C)OC(=S)Nc2ccc(-c3ccc(F)c(F)c3)cc21`: 209 to 211 °C.
In turn, `N=C1CCCN1Cc1ccc(Cl)nc1` showed a melting point of 166 °C.
The same measure for `COCCN(CCOC)c1nc2cc(-c3ccc(Cl)cc3)nnc2c2ccccc12`: 123 to 125 °C.
The same measure for `COCc1ccc2c(c1S(=O)(=O)NC(=O)Nc1nc(C)cc(OC)n1)S(=O)(=O)C(C)C2` (stereo not drawn): 215 to 216 °C; for `COc1ccc(-c2nn(C(C)C)c(=O)c(C(N)=O)c2-c2ccc(OC)cc2)cc1`: 165 to 166 °C; for `Cc1ccc(CN2C(=O)C(CCO)Oc3ccccc32)cc1` (stereo not drawn): 92 to 94 °C.
As for `CC(C)N(C(=O)n1oc(=O)n(C)c1=O)c1ccc(Cl)cc1`, the figure is 121 to 123 °C.
The molecule `Cc1cc(-n2ccnc2)c2cccc(OCc3c(Cl)ccc(S(=O)(=O)N4CCC[C@H]4C(=O)N(C)CCN(C)C)c3Cl)c2n1` returned a melting point of 98 °C.
As for `CC1(C)CCC2(Cc3ccc(Cl)cc3)OC12CO` (stereo not drawn), the figure is 36 to 38 °C.
As for `C[C@H](CC#CC(C)(C)O)[C@H]1CCC[C@H]2[C@@H](O)CCC[C@]12C`, the figure is 134 to 135 °C; as for `CNC(=O)c1ccc(COCc2csc3nc(C(=O)NCc4cccc(OC)c4)[nH]c(=O)c23)cc1`, 190 to 191 °C.
The same measure for `Cc1oc2ccc(N)cc2c(=O)c1C`: 202 to 204 °C; for `CC(=O)C(Cl)=NNc1ccccc1S(C)(=O)=O`: 253 to 255 °C; for `CCc1c(OCc2ccccc2)nc(OCc2ccccc2)nc1C(C#N)c1cc(C)cc(C#N)c1` (stereo not drawn): 139 to 141 °C.
In the case of `CCOC(=O)Cc1nc(-c2ccc(F)cc2)c(-c2ccc(S(C)(=O)=O)cc2)o1`, the melting point lay in the range of 123 to 124 °C.
As for `Cc1c(Cc2cccc(C(F)(F)F)c2)oc2c(-c3cccc(C(=O)NCCS(C)=O)c3)cccc12` (stereo not drawn), the figure is 146 to 147 °C; as for `Nc1nccnc1-c1cc(Cl)cc(Cl)c1Cl`, 142 to 143 °C.
With `O=C(Nc1ccc(C2=CCN(C(=O)OCc3ccccc3)CC2)cc1)OCc1ccccc1`, the melting point lay within 146 to 148 °C.
As for `CC(C)(C)c1cc(CCC(=O)NNC(=O)C=Cc2ccccc2)cc(C(C)(C)C)c1O`, the figure is 224 to 225 °C; as for `COc1cc2c(cc1Nc1ncc(Cl)c(Nc3ccccc3S(=O)(=O)N(C)C)n1)CCN(C(=O)CN1CCOCC1)CC2`, 84 to 95 °C; as for `Cc1cn(C)c2c1N(C(=O)CN(C)C)c1ccccc1NC2=O`, 219 to 220 °C.
The same measure for `CCc1ccc(SCc2c(C(C)C)nc(C(C)C)c(CO)c2-c2ccc(F)cc2)cc1`: 102 to 103 °C; for `CCOC(=O)c1cc2ccccc2n(-c2c(Cl)cccc2Cl)c1=N`: 169 to 170 °C; for `O=[N+]([O-])c1ccc2sc(=Nc3ccccc3)sc2c1`: 136 to 138 °C.
For `C=CCn1c2ccccc2c2ccccc21`, the melting point fell in the range of 52 to 54 °C.
The molecule `O=c1[nH]c2cc(Cl)ccc2n1CCCO` yielded a melting point of 149 °C.
The same measure for `O=C(O)C(c1ccccc1)N1C(=O)c2ccccc2C1=O` (stereo not drawn): 175 to 177 °C.
As for `CCC(=O)NCCc1cc(-c2cccc(C(=O)OC)c2)cc2ccc(OC)cc12`, the figure is 113 to 115 °C; as for `CC(C)(C)OC(=O)Nc1ccncc1N`, 124 to 126 °C; as for `O=Cc1cccc(-c2cnco2)n1`, 151 °C.
As for `CCOC(=O)C(C#N)=CNNc1ccc(C(F)(F)F)cc1[N+](=O)[O-]`, the figure is 163 to 164 °C.
In the case of `CSN=C1C(=O)N2C1SC(C)(C)C2C(=O)OCC(Cl)(Cl)Cl` (stereo not drawn), the melting point fell in the range of 129 to 130 °C.
The same measure for `CC(O)(c1ccccc1)c1cc(Oc2ccc(Cl)cc2)ccc1O` (stereo not drawn): 103 to 104 °C.

Source of the values: a melting point compilation (Tetko et al.; mined from patent text by program, amines drawn as free bases though some values may be those of a salt).
